Test results reported in patent US12612408B2, “Pyrazolone-fused pyrimidine compound, preparation method for same and applications thereof” (SHANGHAI PHARMACEUTICALS HOLDING CO., LTD., priority 2019, dated 2026).

Molecular target: T1, WEE1 kinase (Homo sapiens, UniProt P30291)
T1 construct: purchased CarnaBiosciences, Inc. 05-177
Assay: Inhibitory effect of compound on WEE1 kinase in vitro (ELISA)
Assay type: biochemical
Conditions: ATP concentration of Km
Procedure: The tested compounds were screened on WEE1 kinase with ATP concentration of Km by ELISA. Compounds were screened on WEE1 kinase to evaluate the kinase inhibitory activity of the tested compounds. In the detection process, the initial concentration of the tested compounds was all selected as 100 nM, and each compound was selected with 6 gradient dilution concentrations, the gradient dilution ratio was 4-fold, and two replicate wells were detected for each concentration, MK1775 was used as the standard control.
WEE1, purchased from CarnaBiosciences, Inc., Item No. 05-177; dimethyl sulfoxide, purchased from Sigma-Aldrich, Item No. D8418; ATP, purchased from Sigma-Aldrich, Item No. A7699; DTT solution, purchased from Sigma-Aldrich, Item No. 43816; protein tyrosine kinase (PTK) substrate (poly-Glu-Tyr), purchased from Sigma-Aldrich, Item No. P4476; P-Tyr (PY99), purchased from Santa Cruz, Item No. sc-7020; Anti-mouse IgG HRP-linked Antibody, purchased from Santa Cruz, Item No. 7076S; TMB liquid Substrate System, purchased from Sigma-Aldrich, Item No. T0440; Costar Stripwell Microplate No Lid 1×8 Flat Bottom, Certified High Binding, purchased from Sigma-Aldrich, Item No. 42592; 96-well compound plate, purchased from Thermo Scientific, Item No. 267245.
• 1. Coating substrate: 1) An appropriate volume of substrate storage solution protein tyrosine kinase (PTK) substrate (poly-Glu-Tyr) was taken, diluted 10 times with PBS, and the concentration was diluted from […]. The mixture was added to a high adsorption 96-well plate at 125 μL per well. The plate was placed in an incubator at 37° C. for overnight coating. 2) After 24 hours, the 96-well plate was taken out, the liquid in the 96-well plate was poured out, cleaned with washing buffer for 3 times, and the incubator at 37° C. was inverted and dried for 2 hours. • 2. Compound preparation and transfer: 1) compound dilution: 10 mM of the test compound storage solution was taken, the compound in 96-well compound plate was diluted with DMSO in multiple steps to obtain the initial concentration of 100× compound as the first concentration, and then DMSO was used for 4-fold gradient dilution, for a total of 6 concentrations; after that, 2 μL of the gradient dilution solution was added to 48 μL of 1× reaction buffer respectively to prepare 4× compound; 2) 4× compounds were transferred: 10 μL of 4× compounds from the 96-well compound plate configured in the previous step were transferred into the dried high adsorption 96-well plate; 10 μL of the following liquids were added to the compound-free control wells and ATP-control wells: 2 μL of DMSO was added to 48 μL of 1× reaction buffer. • 3. Enzyme reaction stage: 1) WEE1 kinase and ATP were prepared into 2× enzyme solution and 4×ATP solution respectively with 1× reaction buffer. In this screening, the final concentration of WEE1 kinase was: 0.15 ng/μL and the final concentration of ATP was: […]; 2) 20 μL of enzyme solution of 2 was added to the high adsorption 96-well plate; 3) 10 μL of 4×ATP solution was added to the high adsorption 96-well plate and 10 μL of 1× reaction buffer was added to the ATP-control group; 4) the plate was placed in HERAEUS Multifuge X1R centrifuge at 2000 rpm for 20 s and then placed at room temperature and reacted for 60 min. • 4. Reaction termination stage: 1) the reaction mixture in the plate was poured out, 200 μL of washing buffer was added to each well, and washed for 5 times; the primary antibody P-Tyr (PY99) (dilution ratio 1:2000) was added, 100 μL per well, at room temperature for 30 min. 2) The primary antibody in the plate was poured out, 200 μL of washing buffer was added to each well, and washed for 5 times; the second antibody Anti-mouse IgG HRP-linked Antibody (dilution ratio 1:2000) was added, 100 μL per well, at room temperature for 30 min.

T1 sequence (P30291 whole entry): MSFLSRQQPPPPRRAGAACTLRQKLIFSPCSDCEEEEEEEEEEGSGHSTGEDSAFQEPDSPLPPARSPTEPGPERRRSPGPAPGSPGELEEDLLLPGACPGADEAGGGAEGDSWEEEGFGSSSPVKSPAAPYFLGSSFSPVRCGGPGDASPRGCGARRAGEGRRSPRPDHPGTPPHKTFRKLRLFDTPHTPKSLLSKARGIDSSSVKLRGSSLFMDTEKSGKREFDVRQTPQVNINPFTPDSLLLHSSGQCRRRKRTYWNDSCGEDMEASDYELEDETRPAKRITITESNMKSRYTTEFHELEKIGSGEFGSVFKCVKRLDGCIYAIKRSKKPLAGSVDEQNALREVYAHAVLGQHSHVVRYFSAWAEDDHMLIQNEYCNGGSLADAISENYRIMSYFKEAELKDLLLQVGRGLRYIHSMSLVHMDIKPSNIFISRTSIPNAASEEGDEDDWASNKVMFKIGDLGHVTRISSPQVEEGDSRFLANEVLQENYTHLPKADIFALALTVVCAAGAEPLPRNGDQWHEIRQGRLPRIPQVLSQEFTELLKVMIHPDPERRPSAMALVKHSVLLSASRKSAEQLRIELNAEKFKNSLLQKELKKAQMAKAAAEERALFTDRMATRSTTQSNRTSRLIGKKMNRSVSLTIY

IC50: 1.52 nM
SMILES: C=CCn1c(=O)c2cnc(Nc3ccc(C4CCC(N5CCC5)CC4)cc3)nc2n1-c1cccc(C(C)(C)O)n1 (single isomer, unassigned) [Compound I-8-1]
